Molecules are shown by their SMILES. Counter-ions that a name gives are not always drawn.

The results in this text go back to patent US20190322676A1, “CERAMIDE GALACTOSYLTRANSFERASE INHIBITORS FOR THE TREATMENT OF DISEASE” (BioMarin Pharmaceutical Inc., priority 2016, published 2019).

In this assay the target is T1, human CGT (ceramide galactosyltransferase), CHO/CGT lysate (Homo sapiens, UniProt Q16880).
T1 construct: Full-length human CGT cDNA was cloned into the BamH1/Xho1 site of pcDNA3.1 (+); expressed in transfected cells; host or cells: Chinese hamster ovary (CHO) cells; lysate prepared with M-PER
T1 sequence (Q16880 21-541): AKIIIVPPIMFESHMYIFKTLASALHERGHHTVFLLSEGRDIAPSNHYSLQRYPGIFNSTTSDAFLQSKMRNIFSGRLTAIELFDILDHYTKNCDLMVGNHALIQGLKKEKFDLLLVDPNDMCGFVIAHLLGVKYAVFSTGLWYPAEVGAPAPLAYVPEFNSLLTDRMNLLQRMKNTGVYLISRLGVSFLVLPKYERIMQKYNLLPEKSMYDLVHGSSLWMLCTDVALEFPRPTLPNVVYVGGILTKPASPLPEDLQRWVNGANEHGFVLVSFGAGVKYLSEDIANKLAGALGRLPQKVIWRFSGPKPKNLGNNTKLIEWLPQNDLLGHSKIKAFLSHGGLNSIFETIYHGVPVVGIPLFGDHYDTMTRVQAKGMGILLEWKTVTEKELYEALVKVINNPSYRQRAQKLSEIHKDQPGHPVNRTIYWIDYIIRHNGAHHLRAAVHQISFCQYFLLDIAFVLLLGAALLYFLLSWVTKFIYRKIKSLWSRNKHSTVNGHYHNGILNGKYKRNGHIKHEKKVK
In words: CGT enzyme assay, LC-MS/MS readout (Table 1 ranges without asterisk). Particulars: LC-MS/MS method (range without asterisk). The assay is classed as biochemical. As to the method: Full-length human CGT cDNA was cloned into the BamH1/Xho1 site of pcDNA3.1 (+) mammalian expression vector (V90-20, Invitrogen, Carlsbad, Calif.) and the plasmid was transfected into Chinese hamster ovary (CHO) cells. Lysate was prepared using M-PER (Mammalian Protein Extraction Reagent, ThermoFisher Scientific, Grand Island, N.Y.) in the presence of a protease inhibitor cocktail (P8340, Sigma, Saint Louis, Mo.). Each 100 mm dish (100% confluent, approximately 1×10^7 cells) was lysed with 250 μL of M-PER containing protease inhibitors. Protein concentration was determined using a Pierce BCA protein assay kit (ThermoFisher Scientific). Four micrograms of CHO/CGT lysate was incubated with various concentrations of a compound (0.001 μM-50 μM) in 10 mM HEPES (pH 7.2) containing 35 μM dioleoylphosphatidylcholine, 5 mM MgCl2, 5 mM MnCl2, 1% BSA, 15 mM KCl, 1 mM EGTA, 8 mM CHAPS, 10 μM C6-NBD-dihydro-ceramide and 17.5 μM UDP-galactose in a final reaction volume of 20 μL at 37° C. for 1 hour. The final concentration of DMSO was 0.5% in both compound-treated and mock-treated samples. Tween 80 (0.01%) was optionally added to the reaction mixture to help solubilize the compounds. Each individual reaction was diluted with 80 μL of methanol:acetronitrile (1:3) containing 5 μM N-docdecanoyl-NBD-galactosylceramide (internal standard) to stop the reaction. 200 μL H2O:acetonitile (1:1) was added to precipitate the protein. After sufficient mixing, the plates were centrifuged at 2469 g for 38 minutes, 200 μL of supernatant was transferred to a LC/MS 96-deep well plate and a second spin was performed at 2469 g for 10 minutes. The final supernatant was injected in triplicate for RapidFire/MS/MS analysis.
An alternative LC-MS/MS based method was also used. For the LC-MS/MS readout, the CGT assay was identical to the one described above except for the following: […] was used as the CGT enzyme source, C12:0 (2R—OH) ceramide was used as the ceramide substrate and 0.3 μM Cl2 ceramide was used as the internal standard. Tween 80 was not present in the reaction mixture. The final supernatant was injected for LC-MS/MS analysis.
Quantitative analysis using the LC-MS/MS method: The quantitative analysis of C12:0 (2R—OH) ceramide and C12:0 (2R—OH) galactosylceramide by LC-MS/MS was performed on a Shimadzu ultra-fast liquid chromatography (Shimadzu, Japan) coupled with API 4000 mass spectrometer (Applied Biosystems, Concord, Ontario, Canada). Analyst 1.5 software packages (Applied Biosystems) were used to control the LC-MS/MS system, as well as for data acquisition and processing. 10 μL of sample was loaded onto a Luna C18 column (50 mm×2.0 mm, I.D. 3 μm, 100A) (Phenomenex, USA) for chromatographic separation. Mobile phase A consisted of HPLC grade water with 0.1% formic acid (v/v) and mobile phase B consisted of acetonitrile supplemented with 0.1% formic acid (v/v). The separation was achieved using the following gradient program at a flow rate of 0.8 mL/min: the initial mobile phase was 70% B, which was increased in a linear fashion to 95% B in 1.50 min, and then maintained at 95% B until 3.50 min. The mobile phase was then reset to 70% B within 0.01 min, and maintained until 4.50 min. The total run time was 4.50 min. The MS/MS detection was performed in ESI positive mode. The mass transition selected for quantification was m/z 498.5-264.3 for C12:0 (2R—OH) ceramide under the collision energy of 38.8 V, and the mass transition of C12:0 (2R—OH) galactosylceramide was m/z 660.6-264.5 under the collision energy of 51 V. The mass transition of Cl2 ceramide which was used as internal standard was m/z 482.4-264.3 under the collision energy of 33V. Compound IC50 values were calculated using a protocol identical to the one described for the RapidFire method (see Table 1, where data ranges without an asterix correspond to analysis using the LC-MS/MS method).
Using the above CGT enzyme and CGT cellular assays, the compounds of Table 1 were tested. […]

On to `CC(C)c1ccc2cc(S(=O)(=O)N[C@H](C(=O)N3C4CCC3CC(N)C4)C(F)(F)c3ccc(Br)cc3)ccc2c1` (stereo partly drawn) [Compound 16-1, N-((2R)-3-(3-amino-8-azabicyclo[3.2.1]octan-8-yl)-1-(4-bromophenyl)-1,1-difluoro-3-oxopropan-2-yl)-6-isopropylnaphthalene-2-sulfonamide trifluoroacetate], for which the IC50 lay in the range of 1 to 10 µM.
Under `CC(C)c1ccc2cc(S(=O)(=O)N[C@@H](C(=O)N3C4CCC3CC(N)C4)C(F)(F)c3ccc(Br)cc3)ccc2c1` (stereo partly drawn) [Compound 16-2, N-((2S)-3-(3-amino-8-azabicyclo[3.2.1]octan-8-yl)-1-(4-bromophenyl)-1,1-difluoro-3-oxopropan-2-yl)-6-isopropylnaphthalene-2-sulfonamide trifluoroacetate] stands 30 to 100 µM.
Compound `NC1CC2CCC(C1)N2C(=O)[C@@H](NS(=O)(=O)c1cccc(OCc2ccc(F)cc2)c1)C(F)(F)c1ccc(Br)cc1` (stereo partly drawn) [Compound 17-1, N-((2R)-3-(3-amino-8-azabicyclo[3.2.1]octan-8-yl)-1-(4-bromophenyl)-1,1-difluoro-3-oxopropan-2-yl)-3-((4-fluorobenzyl)oxy)benzenesulfonamide trifluoroacetate] came in with an IC50 of 30 to 100 µM.
In the case of `NC1CC2CCC(C1)N2C(=O)[C@H](NS(=O)(=O)c1cccc(OCc2ccc(F)cc2)c1)C(F)(F)c1ccc(Br)cc1` (stereo partly drawn) [Compound 17-2, N-((2S)-3-(3-amino-8-azabicyclo[3.2.1]octan-8-yl)-1-(4-bromophenyl)-1,1-difluoro-3-oxopropan-2-yl)-3-((4-fluorobenzyl)oxy) benzenesulfonamide trifluoroacetate], the IC50 was 30 to 100 µM.
As for `NC1CC2CCC(C1)N2C(=O)[C@@H](NS(=O)(=O)c1ccc(Oc2ccc(Cl)cn2)cc1)C(F)(F)c1ccc(Br)cc1` (stereo partly drawn) [Compound 18-1, N-((2R)-3-(3-amino-8-azabicyclo[3.2.1]octan-8-yl)-1-(4-bromophenyl)-1,1-difluoro-3-oxopropan-2-yl)-4-((5-chloropyridin-2-yl)oxy)benzenesulfonamide trifluoroacetate], the figure is 10 to 30 µM.
As for `NC1CC2CCC(C1)N2C(=O)[C@H](NS(=O)(=O)c1ccc(Oc2ccc(Cl)cn2)cc1)C(F)(F)c1ccc(Br)cc1` (stereo partly drawn) [Compound 18-2, N-((2S)-3-(3-amino-8-azabicyclo[3.2.1]octan-8-yl)-1-(4-bromophenyl)-1,1-difluoro-3-oxopropan-2-yl)-4-((5-chloropyridin-2-yl)oxy) benzenesulfonamide trifluoroacetate], the figure is 30 to 100 µM.
Under `CC(C)Oc1ccc2cc([C@H](O)C(=O)N[C@H](C(=O)N3C4CCC3CC(N)C4)C(F)(F)c3ccc(Br)cc3)ccc2c1` (stereo partly drawn) [Compound 19-3, (2S)—N-((2R)-3-(3-amino-8-azabicyclo[3.2.1]octan-8-yl)-1-(4-bromophenyl)-1,1-difluoro-3-oxopropan-2-yl)-2-hydroxy-2-(6-isopropoxynaphthalen-2-yl)acetamide trifluoroacetate] stands 1 to 10 µM.
Regarding `CC(C)Oc1ccc2cc([C@@H](O)C(=O)N[C@H](C(=O)N3C4CCC3CC(N)C4)C(F)(F)c3ccc(Br)cc3)ccc2c1` (stereo partly drawn) [Compound 19-5, (2R)—N-((2R)-3-(3-amino-8-azabicyclo[3.2.1]octan-8-yl)-1-(4-bromophenyl)-1,1-difluoro-3-oxopropan-2-yl)-2-hydroxy-2-(6-isopropoxynaphthalen-2-yl)acetamide trifluoroacetate], the IC50 was 10 to 30 µM.
As for `CC(C)Oc1ccc2cc([C@H](O)C(=O)N[C@@H](C(=O)N3C4CCC3CC(N)C4)C(F)(F)c3ccc(Br)cc3)ccc2c1` (stereo partly drawn) [Compound 19-6, (2S)—N-((2S)-3-(3-amino-8-azabicyclo[3.2.1]octan-8-yl)-1-(4-bromophenyl)-1,1-difluoro-3-oxopropan-2-yl)-2-hydroxy-2-(6-isopropoxynaphthalen-2-yl)acetamide trifluoroacetate], the figure is 30 to 100 µM; as for `NC1CC2CCC(C1)N2C(=O)[C@@H](NS(=O)(=O)c1ccc(OCC2CCCC2)cc1)C(F)(F)c1ccc(Br)cc1` (stereo partly drawn) [Compound 20-1, N-((2R)-3-(3-amino-8-azabicyclo[3.2.1]octan-8-yl)-1-(4-bromophenyl)-1,1-difluoro-3-oxopropan-2-yl)-4-(cyclopentylmethoxy)benzenesulfonamide trifluoroacetate], 1 to 10 µM; as for `NC1CC2CCC(C1)N2C(=O)[C@H](NS(=O)(=O)c1ccc(OCC2CCCC2)cc1)C(F)(F)c1ccc(Br)cc1` (stereo partly drawn) [Compound 20-2, N-((2S)-3-(3-amino-8-azabicyclo[3.2.1]octan-8-yl)-1-(4-bromophenyl)-1,1-difluoro-3-oxopropan-2-yl)-4-(cyclopentylmethoxy) benzenesulfonamide trifluoroacetate], 10 to 30 µM.
Under `CC(C)Oc1ccc2cc(S(=O)(=O)N[C@H](C(=O)N3C4CCC3CC(N(C)C)C4)C(F)(F)c3ccc(Br)cc3)ccc2c1` (stereo partly drawn) [Compound 21-1, N-((2R)-1-(4-bromophenyl)-3-(3-(dimethylamino)-8-azabicyclo[3.2.1]octan-8-yl)-1,1-difluoro-3-oxopropan-2-yl)-6-isopropoxynaphthalene-2-sulfonamide] stands 10 to 30 µM.
As for `CC(C)Oc1ccc2cc(S(=O)(=O)N[C@@H](C(=O)N3C4CCC3CC(N(C)C)C4)C(F)(F)c3ccc(Br)cc3)ccc2c1` (stereo partly drawn) [Compound 21-2, N-((2S)-1-(4-bromophenyl)-3-(3-(dimethylamino)-8-azabicyclo[3.2.1]octan-8-yl)-1,1-difluoro-3-oxopropan-2-yl)-6-isopropoxy naphthalene-2-sulfonamide], the figure is 30 to 100 µM; as for `CCCCOc1ccc(S(=O)(=O)N[C@H](C(=O)N2C3CCC2CC(N)C3)C(F)(F)c2ccc(Br)cc2)cc1` (stereo partly drawn) [Compound 22-1, N-((2R)-3-(3-amino-8-azabicyclo[3.2.1]octan-8-yl)-1-(4-bromophenyl)-1,1-difluoro-3-oxopropan-2-yl)-4-butoxybenzenesulfonamide], 1 to 10 µM.
Compound `CCCCOc1ccc(S(=O)(=O)N[C@@H](C(=O)N2C3CCC2CC(N)C3)C(F)(F)c2ccc(Br)cc2)cc1` (stereo partly drawn) [Compound 22-2, N-((2S)-3-(3-amino-8-azabicyclo[3.2.1]octan-8-yl)-1-(4-bromophenyl)-1,1-difluoro-3-oxopropan-2-yl)-4-butoxybenzenesulfonamide] came in with an IC50 of 30 to 100 µM.
